In paper PMC6277198, “Molecular basis for activation of lecithin:cholesterol acyltransferase by a compound that increases HDL cholesterol” (eLife, 2018):
“Also recorded” adds a separate entry of the source.

Tests used:
[1] = biological target: T1, WT LCAT (Homo sapiens, UniProt P04180); experiment: Bio-layer interferometry, LCAT binding to ApoA-I HDLs; settings: 10 μM compound 1
T1 sequence (P04180 25-440): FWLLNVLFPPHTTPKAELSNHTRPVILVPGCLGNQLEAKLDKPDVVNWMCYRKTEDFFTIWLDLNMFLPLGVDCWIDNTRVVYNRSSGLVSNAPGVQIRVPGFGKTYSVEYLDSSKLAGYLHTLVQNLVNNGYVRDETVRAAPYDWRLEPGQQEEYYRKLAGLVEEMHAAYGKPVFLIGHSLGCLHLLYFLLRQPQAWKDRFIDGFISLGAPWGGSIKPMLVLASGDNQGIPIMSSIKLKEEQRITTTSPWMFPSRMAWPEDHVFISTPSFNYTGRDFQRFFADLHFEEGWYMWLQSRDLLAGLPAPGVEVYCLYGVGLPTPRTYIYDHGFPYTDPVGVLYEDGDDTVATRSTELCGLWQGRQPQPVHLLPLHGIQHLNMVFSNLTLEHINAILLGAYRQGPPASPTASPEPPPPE
Experimental: A FortéBio Octet RED system was used to measure the binding of LCAT to ApoA-I HDLs. HDLs were prepared with 1,2-dipalmitoyl-sn-glycero-3-phosphocholine (DPPC), 1-palmitoyl-2-oleoyl-sn-glycero-3-phosphocholine (POPC), and 16:0 biotinyl Cap PE in a ratio of 49.5:49.5:1 ([Manthei et al., 2017]). HDLs were diluted 1/20 in assay buffer (1X PBS pH 7.4, 1 mM EDTA, 60 µM fatty acid free bovine serum albumin) and then immobilized on streptavidin tips for 600 s, followed by a wash in assay buffer for 600 s to remove unbound HDLs. The tips were then moved to buffer containing DMSO or compound 1 and allowed to equilibrate for 120 s before a baseline was established for 30 s. […] In order to determine Kd values, the kobs (from association) were determined at each concentration for the fast phase and then plotted against LCAT concentration. The slope of the line was evaluated as kon using the equation kobs = kon[LCAT]+koff and the resultant Kd = koff/kon. For statistical analysis, the kon, koff, and Kd for each replicate was determined individually and the results were compared to WT using a one-way analysis of variance followed by Tukey’s multiple comparisons post-test in GraphPad Prism.

[2] = biological target: T1, WT LCAT; experiment: DHE acyltransferase assay with peptide-based HDLs; assay type: biochemical; design: hydrolysis of 4-methylumbelliferyl palmitate (MUP) by full-length LCAT; made in house; host or cells: HEK293F (transient transfection, secreted)
Experimental: Peptide-based HDLs were used in this assay as there is no difference between peptide HDLs and ApoA-I HDLs in both HDL binding and acyltransferase assays ([Manthei et al., 2017]). The peptide HDLs were made using the ESP24218 peptide with the sequence […] ([Dassuex et al., 1999]; [Li et al., 2015]) with a DPPC:POPC:DHE ratio of 47:47:6 as previously described ([Manthei et al., 2017]). The assay was performed in 384-well low volume black microplates (Corning 4514) with a total assay volume of 16 μL. In each reaction, LCAT was diluted in assay buffer to 15 μg mL^−1 in the presence of either 1% DMSO or 10 μM 2 with 1% DMSO. Compound 2 was used in this assay because it has lower background fluorescence than 1. The DHE HDLs were diluted in 1X PBS with 1 mM EDTA and 5 mM β-mercaptoethanol. 8 μL of the HDLs were added to the plate, and the reactions were initiated with 8 μL of LCAT, so that LCAT was assayed at 7.5 μg mL^−1 with and without 5 μM compound with a range of DHE concentrations from 0 to 50 μM. The reactions were stopped after 25 min at 37 °C with the addition of 4 μL of stop solution (1X PBS with 1 mM EDTA, 5 U mL^−1 cholesterol oxidase (COx), and 7% Triton X100). Following the addition of stop solution, the plates were incubated for another 60 min at 37 °C to allow for the COx to react. After the plates were re-equilibrated at room temperature, fluorescence was determined on a SpectraMax plate reader with excitation at 325 nm and emission at 425 nm, with a 420 nm cutoff. Reactions without LCAT were used for background subtraction, and reactions without LCAT and stop solution lacking COx were used to generate a standard curve for DHE. Reactions were performed in triplicate with three independent experiments per LCAT variant. Data were processed via background subtraction to remove excess fluorescence that results from the higher concentrations of DHE. […] Outliers were removed using automatic outlier elimination within Prism. For statistical analysis, the Vmax for each variant was compared to WT using a one-way analysis of variance followed by Tukey’s multiple comparisons post-test in GraphPad Prism.
To determine EC50 values, compound 2 was titrated from 0.004 to 10 μM, and the DHE concentration was set at 50 μM. LCAT was diluted in assay buffer and compound 2 dilutions were made with assay buffer containing 5.3% DMSO. 1.5 μL compound was added, then 6.5 μL LCAT, followed by 8 μL DHE. Dilutions were adjusted so that LCAT was assayed at 7.5 μg mL^−1, as above. All values were background subtracted to buffer with the same concentration of compound 2. A standard curve was included in one experiment with DHE from 0 to 50 μM in order to adjust the final fluorescence values to a rate by dividing by the slope of the line and time (25 min), as above. […]

| Fold activation, DHE acyltransferase activity ([2]; WT LCAT, peptide-based HDLs) [fold] | acyltransferase rate ([2]; WT LCAT, lowest concentration of compound 2 examined) [µM/h] | EC50 ([2]; WT, compound 2 titrated from 0.004 to 10 μM, DHE 50 μM) [nM] | Vmax, DHE assay ([2]; with 5 μM compound 2 (22 without)) [μM DHE-ester hr^−1] | Compound | Effect on LCAT binding to HDL (kon, koff, Kd) in BLI [1] |
| --- | --- | --- | --- | --- | --- |
|  |  |  |  | N#Cc1cnc(N2CCC(c3n[nH]c4c3C(O)(C(F)(F)F)CC(=O)N4)CC2)cc1C(F)(F)F (centres unmarked) [compound 1, 6-(4-(4-Hydroxy-6-oxo-4-(trifluoromethyl)−4,5,6,7-tetrahydro-1H-pyrazolo[3,4-b]pyridin-3-yl)piperidin-1-yl)−4-(trifluoromethyl)nicotinonitrile] | does not affect; also recorded: no change |
| 2.8 | 11 | 280 ± 90 | 37 | O=C1CC(O)(C(F)(F)F)c2c(C3CCN(c4cnc(C(F)(F)F)cn4)CC3)n[nH]c2N1 (centres unmarked) [compound 2, 4-Hydroxy-4-(trifluoromethyl)−3-(1-(5-(trifluoromethyl)pyrazin-2-yl)piperidin-4-yl)−4,5-dihydro-1H-pyrazolo[3,4-b]pyridin-6(7H)-one] |  |
